Reference: ChEMBL document CHEMBL1165956, “Design, synthesis, and pharmacological evaluation of N-(4-mono and 4,5-disubstituted thiazol-2-yl)-2-aryl-3-(tetrahydro-2H-pyran-4-yl)propanamides as glucokinase activators” (Bioorg Med Chem, 2010)
One block for each molecule: values may come before it. Activity calls are given as the source filed them. No cut-off for these calls is given here.

Legend:
Hexokinase-4 [1] = molecular target: T1, Hexokinase-4 (Homo sapiens, UniProt P35557); experiment: Activation of human glucokinase expressed in Escherichia coli BL21(DE3) coexpressing G6PDH by spectrometry
T1 sequence (P35557 whole entry): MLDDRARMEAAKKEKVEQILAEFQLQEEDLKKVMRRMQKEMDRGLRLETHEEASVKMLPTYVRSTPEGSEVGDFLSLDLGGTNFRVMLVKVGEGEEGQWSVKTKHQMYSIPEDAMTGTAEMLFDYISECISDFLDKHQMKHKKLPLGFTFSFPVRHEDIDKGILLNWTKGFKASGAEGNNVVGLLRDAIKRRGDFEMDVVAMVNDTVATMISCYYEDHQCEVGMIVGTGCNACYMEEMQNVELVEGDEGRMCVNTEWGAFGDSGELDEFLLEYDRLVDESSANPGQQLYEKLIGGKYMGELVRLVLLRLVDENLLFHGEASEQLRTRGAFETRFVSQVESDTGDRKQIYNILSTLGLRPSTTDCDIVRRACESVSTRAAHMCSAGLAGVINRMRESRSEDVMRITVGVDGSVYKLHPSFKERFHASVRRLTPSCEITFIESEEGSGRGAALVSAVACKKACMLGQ

Mus musculus [2] = experiment: Antihyperglycemic activity in diabetic C57BL/6J ob/ob mouse assessed as decrease in blood glucose at 50 mg/kg, po administered as single dose measured after 180 mins relative to control; assay type: functional, organism-based; set-up: dose 50 mg/kg
Hepatocyte = experiment: Induction of glycogen synthesis in Sprague-Dawley rat hepatocytes at 20 uM after 4 hrs relative to control; assay type: functional
Mus musculus [3] = experiment: Hypoglycemic activity in non-diabetic ICR mouse assessed as decrease in blood glucose at 3 mg/kg, po administered as single dose measured after 30 mins relative to control; assay type: functional; set-up: scale not given: the % may be the effect or the level left
Mus musculus [4] = experiment: Hypoglycemic activity in non-diabetic ICR mouse assessed as decrease in blood glucose at 10 mg/kg, po administered as single dose measured after 30 mins relative to control; assay type: functional; set-up: scale not given: the % may be the effect or the level left
Mus musculus [5] = experiment: Hypoglycemic activity in non-diabetic ICR mouse assessed as decrease in blood glucose at 50 mg/kg, po administered as single dose measured after 30 mins relative to control; assay type: functional; set-up: scale not given: the % may be the effect or the level left
Mus musculus [6] = experiment: Hypoglycemic activity in non-diabetic ICR mouse assessed as decrease in blood glucose at 3 mg/kg, po administered as single dose measured after 120 mins relative to control; assay type: functional, organism-based; set-up: dose 3 mg/kg
Mus musculus [7] = experiment: Hypoglycemic activity in non-diabetic ICR mouse assessed as decrease in blood glucose at 10 mg/kg, po administered as single dose measured after 240 mins relative to control; assay type: functional, organism-based; set-up: dose 10 mg/kg
Mus musculus [8] = experiment: Hypoglycemic activity in non-diabetic ICR mouse assessed as decrease in blood glucose at 50 mg/kg, po administered as single dose measured after 240 mins relative to control; assay type: functional, organism-based; set-up: dose 50 mg/kg
Mus musculus [9] = experiment: Antihyperglycemic activity in diabetic C57BL/6J ob/ob mouse assessed as decrease in blood glucose at 20 mg/kg, po administered as single dose measured after 120 mins relative to control; assay type: functional, organism-based; set-up: dose 20 mg/kg
Mus musculus [10] = experiment: Antihyperglycemic activity in diabetic C57BL/6J ob/ob mouse assessed as decrease in blood glucose at 20 mg/kg, po administered as single dose measured after 180 mins relative to control; assay type: functional, organism-based; set-up: dose 20 mg/kg
Mus musculus [11] = experiment: Antihyperglycemic activity in diabetic C57BL/6J ob/ob mouse assessed as decrease in blood glucose at 50 mg/kg, po administered as single dose measured after 60 mins relative to control; assay type: functional, organism-based; set-up: dose 50 mg/kg
Mus musculus [12] = experiment: Antihyperglycemic activity in diabetic C57BL/6J ob/ob mouse assessed as decrease in blood glucose at 50 mg/kg, po administered as single dose measured after 120 mins relative to control; assay type: functional, organism-based; set-up: dose 50 mg/kg
Hexokinase-4 [13] = molecular target: T2, Hexokinase-4 (Rattus norvegicus, UniProt P17712)
T2 sequence (P17712 whole entry): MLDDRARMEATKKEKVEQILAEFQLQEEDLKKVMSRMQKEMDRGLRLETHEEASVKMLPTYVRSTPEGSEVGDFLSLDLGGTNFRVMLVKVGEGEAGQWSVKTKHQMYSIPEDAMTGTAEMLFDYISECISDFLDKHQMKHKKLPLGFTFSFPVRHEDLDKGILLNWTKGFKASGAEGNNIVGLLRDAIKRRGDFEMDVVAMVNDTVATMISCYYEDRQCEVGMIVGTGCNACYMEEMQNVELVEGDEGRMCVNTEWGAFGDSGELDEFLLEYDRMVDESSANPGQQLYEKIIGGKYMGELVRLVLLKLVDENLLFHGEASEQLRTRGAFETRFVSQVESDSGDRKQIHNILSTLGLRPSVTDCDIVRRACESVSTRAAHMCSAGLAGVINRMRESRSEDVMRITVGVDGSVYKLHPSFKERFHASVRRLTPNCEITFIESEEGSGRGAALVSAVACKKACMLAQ
Description: Induction of glucokinase-mediated 2-deoxy-D-[3H]glucose uptake in Sprague-Dawley rat hepatocytes after 4 hrs by liquid scintillation countingl

[14] = Oral bioavailability in rat; assay type: ADME, organism-based; settings: in vivo
[15] = Oral bioavailability in dog; assay type: ADME, organism-based, Canis lupus familiaris; settings: in vivo

- EC50 (Hexokinase-4 [1]; read-out: EC50): 1000 nM
SMILES: CCc1csc(NC(=O)C(CC2CCOCC2)c2ccc(S(C)(=O)=O)cc2)n1 (stereo unspecified)

SMILES: CC(C)c1csc(NC(=O)[C@H](CC2CCOCC2)c2ccc(S(C)(=O)=O)cc2)n1
- EC50 (Hexokinase-4 [1]; read-out: EC50): 330 nM

- EC50 (Hexokinase-4 [1]; read-out: EC50): 1350 nM
SMILES: CS(=O)(=O)c1ccc(C(CC2CCOCC2)C(=O)Nc2nc(C3CC3)cs2)cc1 (stereo unspecified)

- EC50 (Hexokinase-4 [1]): Not Active
SMILES: CC(C)c1nc(NC(=O)C(CC2CCOCC2)c2ccc(S(=O)(=O)C3CC3)cc2)sc1I (stereo unspecified)

- EC50 (Hexokinase-4 [1]): Not Active
SMILES: O=C1N=C(NC(=O)C(CC2CCOCC2)c2ccc(S(=O)(=O)C3CC3)cc2)S/C1=C\c1ccccc1 (stereo unspecified)

- EC50 (Hexokinase-4 [1]; read-out: EC50): 4680 nM
SMILES: O=C1CSC(NC(=O)C(CC2CCOCC2)c2ccc(S(=O)(=O)C3CC3)cc2)=N1 (stereo unspecified)

SMILES: CC(C)c1csc(NC(=O)C(CC2CCOCC2)c2ccc(S(C)(=O)=O)cc2)n1 (stereo unspecified)
- EC50 (Hexokinase-4 [1]; read-out: EC50): 310 nM

- EC50 (Hexokinase-4 [1]): Not Active
SMILES: CS(=O)(=O)c1ccc(C(CC2CCOCC2)C(=O)Nc2nc3cc(F)ccc3s2)cc1 (stereo unspecified)

- EC50 (Hexokinase-4 [1]; read-out: EC50): 1180 nM
SMILES: CS(=O)(=O)c1ccc(C(CC2CCOCC2)C(=O)Nc2nc(-c3ccc(F)cc3)cs2)cc1 (stereo unspecified)

- EC50 (Hexokinase-4 [1]; read-out: EC50): 1690 nM
SMILES: CS(=O)(=O)c1ccc(C(CC2CCOCC2)C(=O)Nc2nccs2)cc1 (stereo unspecified)

- EC50 (Hexokinase-4 [1]; read-out: EC50): 2930 nM
SMILES: CC(C)(C)c1csc(NC(=O)C(CC2CCOCC2)c2ccc(S(C)(=O)=O)cc2)n1 (stereo unspecified)

- EC50 (Hexokinase-4 [1]; read-out: EC50): 158 nM
SMILES: C=C(C)c1csc(NC(=O)C(CC2CCOCC2)c2ccc(S(=O)(=O)C3CC3)cc2)n1 (stereo unspecified)

- EC50 (Hexokinase-4 [1]; read-out: EC50): 2860 nM
SMILES: Cc1nc(NC(=O)C(CC2CCOCC2)c2ccc(S(C)(=O)=O)cc2)sc1C (stereo unspecified)

SMILES: CC(C)c1csc(NC(=O)[C@H](CC2CCOCC2)c2ccc(S(=O)(=O)C3CC3)cc2)n1
- Activity (Mus musculus [2]): Active
- Activity (Hepatocyte): 83.7%
- Activity (Mus musculus [3]): 12.7%
- Activity (Mus musculus [4]): 33.9%
- Activity (Mus musculus [5]): 40.7%
- Activity (Mus musculus [6]): Active
- Activity (Mus musculus [7]): Active
- Activity (Mus musculus [8]): Active
- Activity (Mus musculus [9]): Active
- Activity (Mus musculus [10]): Active
- Activity (Mus musculus [11]): Active
- Activity (Mus musculus [12]): Active
- EC50 (Hexokinase-4 [13]): 26 nM

- EC50 (Hexokinase-4 [1]; read-out: EC50): 1040 nM
SMILES: COc1ccc(-c2csc(NC(=O)C(CC3CCOCC3)c3ccc(S(C)(=O)=O)cc3)n2)cc1 (stereo unspecified)

- EC50 (Hexokinase-4 [1]; read-out: EC50): 320 nM
SMILES: CC(C)c1nc(NC(=O)C(CC2CCOCC2)c2ccc(S(=O)(=O)C3CC3)cc2)sc1Br (stereo unspecified)

- bioavailability [14]: 90%
- bioavailability [15]: 100%
SMILES: COC[C@H](C)Oc1cc(O[C@@H](C)Cc2ccccc2)cc(C(=O)Nc2ccc(C(=O)O)cn2)c1

- EC50 (Hexokinase-4 [1]): Not Active
SMILES: CC(C)/C=C1\SC(NC(=O)C(CC2CCOCC2)c2ccc(S(=O)(=O)C3CC3)cc2)=NC1=O (stereo unspecified)

- EC50 (Hexokinase-4 [1]; read-out: EC50): 2860 nM
SMILES: CN1CCc2nc(NC(=O)C(CC3CCOCC3)c3ccc(S(=O)(=O)C4CC4)cc3)sc2C1 (stereo unspecified)

SMILES: CS(=O)(=O)c1ccc(C(CC2CCOCC2)C(=O)Nc2nc(-c3ccccc3)cs2)cc1 (stereo unspecified)
- EC50 (Hexokinase-4 [1]; read-out: EC50): 724 nM

SMILES: CC(C)Cc1csc(NC(=O)C(CC2CCOCC2)c2ccc(S(C)(=O)=O)cc2)n1 (stereo unspecified)
- EC50 (Hexokinase-4 [1]; read-out: EC50): 355 nM

SMILES: O=C(Nc1nc2c(s1)CCC2)C(CC1CCOCC1)c1ccc(S(=O)(=O)C2CC2)cc1 (stereo unspecified)
- EC50 (Hexokinase-4 [1]; read-out: EC50): 79 nM

- EC50 (Hexokinase-4 [1]): Not Active
SMILES: Cc1nc(NC(=O)C(CC2CCOCC2)c2ccc(S(C)(=O)=O)cc2)sc1C(C)C (stereo unspecified)
